*: point of attachment. CH2F = FC*

These results are taken from paper PMC7281206, “Cysteine Cathepsins Inhibition Affects Their Expression and Human Renal Cancer Cell Phenotype” (Cancers, 2020).

Holding throughout (type): cell-based, human
The test system of test [1] is 769-P cells (proteolytic activity). Nature of the test: Cell proteolytic activity towards Ac-PLVQ-AMC, 769-P. The note with it: 30 min peptide, then 10 min Ac-PLVQ-AMC; fluorescence microscopy and fluorimetric analysis. The procedure:
(§1) To evaluate the inhibitory properties of the peptides directly on the human renal cancer cells, we firstly assessed the impact of Ac-PLVE-FMK and Ac-VLPE-FMK on the cell viability of 769-P and A498 cells to determine the working concentrations for further experiments. […] Further experiments were performed using a concentration of 20 μM. To understand if the peptides could affect the activity of caspase proteases, we tested their effect on cell viability in combination with the chemotherapeutic paclitaxel (PXT) in both the cell lines. […] Next, we evaluated the effect of the peptides on renal cancer cell proteolytic activity against the fluorogenic probe Ac-PLVQ-AMC. In this case, 769-p and A498 cells were treated for 30 min with Ac-PLVE-FMK or Ac-VLPE-FMK and were then exposed for 10 min to the substrate Ac-PLVQ-AMC prior fluorescence microscopy analysis (Figure 3c,d).
(§2) Figure 3 The effect of the peptide inhibitors on human 769-P and A498 renal cancer cell proliferation and proteolytic activity. […] Cell proliferation was measured after 24, 48, and 72 h via MTT (3-(4,5-dimethylthiazol-2-yl)-2,5-diphenyltetrazolium bromide) assay. […] (c) Fluorescence microscopy evaluation and quantification of the cell proteolytic activity in 769-P and (d) A498 cells towards the fluorogenic substrate Ac-PLVQ-AMC in the absence or presence of Ac-PLVE-FMK and Ac-VLPE-FMK. […]

Test [2] relates to A498 cells (proteolytic activity). As to the kind of experiment: Cell proteolytic activity towards Ac-PLVQ-AMC, A498. The note with it: 30 min peptide, then 10 min Ac-PLVQ-AMC; fluorescence microscopy and fluorimetric analysis. As for the experimental part:
as §1, §2

In a further test the test system is E-cadherin in A498 cells. As to the kind of experiment: E-cadherin protein expression (western blot), A498. The note with it: first 48 h. The procedure:
(§3) These properties could be the result of the modulation of the effectors controlling EMT, as previously shown in other tumor models. To test this hypothesis, the cells were treated with the inhibitors for 24, 48, and 72 h by changing the media every day, and they were tested for E-cadherin and SNAIL1 expression (Figure 6; detail information of western blots can be seen in Supplementary Figure S7). Figure 6 Effects of the peptides on E-cadherin and SNAIL1 protein expression: (a,b) protein expression of E-cadherin and SNAIL1 in 769-P and (c,d) A498 cells after 24, 48, and 72 h of treatment with the peptides. Data are represented as mean ± SD of at least three replicates. Significance was calculated through one-way ANOVA, followed by Dunnet’s test. Cells were seeded in RPMI containing 10% FBS and cultured for 24 h. Next, 30 µM of inhibitors were added to the culture medium and incubated for 24, 48, and 72 h. Control cells were treated with 0.01% DMSO. At all time points the samples were lysed in 50 mM Tri-HCl (pH 8.0), 100 mM NaCl, 0.5% NP-40, 1% Triton X-100, 1× protease inhibitor cocktail (ThermoFisher, Waltham, MA, USA). The 50 µg of protein lysates were separated by electrophoresis on a 12% SDS-PAGE gel and transferred to the PFDF membranes. […] After an additional wash (three times with PBS), reactive bands were detected by chemiluminescence (Bio-Rad, Irvine, CA, USA). […]

In another test the test system is SNAIL1 in A498 cells. As to the kind of experiment: SNAIL1 protein expression (western blot), A498. The note with it: 72 h. The procedure:
as §3
(A western blot detects proteins with antibodies after separation by electrophoresis.)

In test [3] the test system is A498 cells (endolysosomal compartment). Nature of the test: Neutral red assay (endolysosomal integrity), A498. Conditions: 2.5–250 μM; 48 h. The procedure: (§4) Figure S6. The effect of the peptide inhibitors on human 769‐P and A498 renal cancer cell on
(§5) lysosomes integrity. (a) 769‐P and (b) A498 cells were treated with increasing doses of Ac‐PLVE‐FMK
(§6) (red bars) and Ac‐VLPE‐FMK (blue bars) (2.5–250 μM). NR uptake was measured after 24, 48, and 72
(§7) h via MTT assay. (c) LysoTracker red evaluation in 769‐P and (d) A498 cells after 24, 48, and 72 h with
(§8) the inhibitors (20 μM). Data represent the mean (± S.D.) of at least three independent experiments,
each performed in triplicate.

Test [4] shares this test system. Nature of the test: LysoTracker red fluorescence, A498. Conditions: 20 μM; 48 h; 75 nM LysoTracker red, 1 h, Ex/Em 570/600. The procedure: First, 1.5 × 10^4 769-P or A498 cells were seeded in 96-well plates in full medium. The day after the cells were treated with the peptides for 3 consecutive days to establish 24, 48, and 72 h groups of treatment. LysoTracker Red fluorescence intensity was measured via microplate reader following the protocols described in [75] and applying Ex/Em = 570/600. The cells were incubated with 75 nM of LysoTracker red for 1 h. […]
as §4, §5, §6, §7, §8
each performed in triplicate. […]

As for Ac-PLVE-CH2F [Ac-PLVE-FMK], the “Inhibition of probe degradation (cell proteolytic activity)” value in test [1] and in test [2] was “significantly inhibited the probe degradation” throughout. In addition, in the test with E-cadherin in A498 cells, the E-cadherin protein expression result is on record as “increased the protein expression of E-cadherin in the first 48 h in both the cell lines”. Moreover, the SNAIL1 protein expression result in the test on SNAIL1 in A498 cells is “dropped to values more similar to the control”. The Neutral red uptake entry in test [3] was “decreasing”. In addition, in test [4], the LysoTracker red fluorescence result is recorded as “decreasing”.
As for Ac-VLPE-CH2F [Ac-VLPE-FMK], the “Inhibition of probe degradation (cell proteolytic activity)” value in test [1] and in test [2] was “significantly inhibited the probe degradation” each time. Also, in the test with E-cadherin in A498 cells, the E-cadherin protein expression result was “increased the protein expression of E-cadherin in the first 48 h in both the cell lines”. In addition, in the test with SNAIL1 in A498 cells, the SNAIL1 protein expression entry is “dropped to values more similar to the control”. Besides, the Neutral red uptake entry in test [3] was “decreasing”. The LysoTracker red fluorescence result in test [4] is on record as “decreasing”.
